Earlier results, collected in publication PMC7997369, “Assessment of the Multifunctional Behavior of Lupin Peptide P7 and Its Metabolite Using an Integrated Strategy” (Journal of Agricultural and Food Chemistry, 2020).
pIC50: −log10 of the molar value. No end group written: not given here.

Molecular target: T1, HMGCoAR (catalytic domain) (Homo sapiens, UniProt P04035)
T1 construct: finally the HMGCoAR (catalytic domain) (2 µL); purchased Sigma
T1 sequence (P04035 426-888 limits assumed): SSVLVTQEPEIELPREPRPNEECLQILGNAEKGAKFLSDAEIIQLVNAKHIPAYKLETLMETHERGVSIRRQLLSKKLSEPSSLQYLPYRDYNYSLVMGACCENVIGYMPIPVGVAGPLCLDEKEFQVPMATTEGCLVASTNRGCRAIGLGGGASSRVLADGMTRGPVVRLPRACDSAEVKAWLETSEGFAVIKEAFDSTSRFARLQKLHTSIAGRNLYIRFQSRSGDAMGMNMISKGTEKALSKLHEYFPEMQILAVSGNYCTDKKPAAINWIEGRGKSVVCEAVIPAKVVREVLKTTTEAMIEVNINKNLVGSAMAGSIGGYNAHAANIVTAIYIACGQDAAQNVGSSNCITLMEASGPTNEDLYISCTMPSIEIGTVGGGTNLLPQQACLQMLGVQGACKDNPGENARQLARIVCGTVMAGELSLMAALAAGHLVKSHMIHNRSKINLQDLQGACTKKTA
Settings: read-out: IC50, in vitro HMGCoAR activity; cited from earlier work
Text: To express their activity in vivo, peptides masked within a protein sequence need not only be released by specific and selective proteases but may also be absorbed at the intestinal level and enter blood circulation to reach the target organs.[2] Differentiated Caco-2 cells still represent the best available model system for intestinal transport studies.[3]−[5] […] To function as a competitive inhibitor of HMGCoAR, a peptide should mimic the hydroxymethylglutaryl moiety. To achieve this goal, the conformation and side chain groups play a more important role than the total hydrophobicity. Moreover, the correlation of the inhibitory activity with the peptide length has not yet been established, while it has been confirmed that a ...

## LTFPGSAED [P7]
  pIC50: 4.16
